# Values joined by “and” are separate entries in the source; they are usually repeats but may differ in a detail not shown here. Equal entries are not always repeated. Where two headings read alike, the source gives them in different places.
# Experiments:
# DL1 cells = test: cytotoxicity in Drosophila DL1 cells; assay type: cell-based; details: for IC50: Drosophila melanogaster
# Method: (§1) We screened the DDPs on the Drosophila assay system for cytotoxicity, inhibitory activity of innate immune signalling and insecticidal activity. The cytotoxicity of the DDPs was evaluated using two cell lines, embryonic macrophage-derived DL1 cells[58]–[60] and larval blood cell-derived l(2)mbn cells, and their IC50 values are listed in Supplementary Table 23.
# [1] = cytotoxicity in Drosophila DL1 cells; assay type: cell-based; details: Drosophila, DL1 cells (embryonic macrophage-derived), DL1 cells
# Method: as §1
# MCF-7 cells = test: mammosphere formation assay; assay type: cell-based, human; details: MCF-7, 5 μM, 7 days; for MFE (%) ave: mean of 3, control 0.87; for MFE (control = 1) ave: relative to control = 1; for MFE (%): single replicates
# Method: We also evaluated antiproliferative activity against cancer stem cells (CSCs), which are a small sub-population in tumour bulk identified in most cancer cells and clinical samples[52]. CSCs have been a major problem in cancer therapy because they are responsible for recurrence, metastasis and drug resistance to chemotherapeutic agents that affect proliferative cells[53]–[56]. Anti-CSC activity was evaluated by the inhibition of sphere-forming ability, a well-studied method to enrich the CSC-like population, and selective cytotoxicity against one of the most reliable CSC markers, aldehyde dehydrogenase (ALDH)-positive cells. […] Low-toxicity 16 was also added as a negative control. […] We next evaluated the three DDPs that inhibited mammosphere formations against ALDH-positive cells, a functional marker for breast CSCs. MCF-7 cells were treated with 1 μM of 11, 12 or 22, and the ALDH-positive cell population was analysed by using a fluorescence activated cell sorter (Supplementary Fig. 46b). […] Thus, for the first time, we successfully found DDPs with potent antiproliferative effects on the CSC-like population in MCF-7 cells, which may lead to new anti-CSC drugs.
# Fig. 5 DDPs show anti-CSC activity in breast cancer cell line MCF-7. a Effect of DDPs on mammosphere formation. After the cells were cultured in the presence of 5 μM DDPs for 7 days, the number of mammospheres was microscopically counted and the percentage of mammosphere-forming cells was determined as mammosphere-forming efficiency (MFE; %). Data represent mean ± s.d. from three independent replicate experiments. P-values were calculated by a two-sided unpaired Student’s t-test, compared with control. b Micrographs show representative images of mammosphere formation from three independent replicate experiments using compound 11, 12, 16, 22. The scale bar, […]. c Effect of DDPs (1 μM, 3 days) on ALDH-positive cells in MCF-7 cells. Data represent mean ± s.d. from three independent replicate experiments. P-values were calculated by a two-sided unpaired Student’s t-test, compared with control. d Dose-dependent effect of compound 12 on ALDH-positive cells in MCF-7 cells. Data represent mean ± s.d. from three independent replicate experiments. P-values were calculated by a two-sided unpaired Student’s t-test. Source data underlying Fig. 5a, c, d are provided in a Source Data file.
# [2] = system: hepatitis B virus (HBV), measles virus (MV), Epstein-Barr virus (EBV), herpes simplex virus (HSV); test: preliminary anti-viral screening (other viruses); assay type: cell-based
# Text: (§2) We examined the inhibitory activities of DDPs against various species of bacteria (both gram-negative and gram-positive bacteria), fungi and viruses. […] In contrast, preliminary screening of the DDPs for anti-viral agents with hepatitis B virus (HBV), measles virus (MV), Epstein-Barr virus (EBV), herpes simplex virus (HSV) and human immunodeficiency virus-1 (HIV-1) indicated their selective inhibition of HIV.
# [3] = system: human immunodeficiency virus-1 (HIV-1); test: anti-HIV MAGI assay; assay type: cell-based; details: anti-HIV
# Text: as §2
# [4] = DL1 cells, 0.04 µM, replicate 1
# [5] = DL1 cells, 0.04 µM, replicate 2
# [6] = DL1 cells, cytotoxicity, average of two replicates, read-out: IC50 Average
# [7] = DL1 cells, cytotoxicity, replicate 1, read-out: IC50 (1)
# [8] = DL1 cells, cytotoxicity, replicate 2, read-out: IC50 (2)
# [9] = replicate 1, relative to DMSO 1%, read-out: % viability, viability 1
# [10] = replicate 2, relative to DMSO 1%, read-out: % viability, viability 2
# [11] = Human immunodeficiency virus 1, MAGI, MAGI assay, read-out: EC50
# [12] = Human immunodeficiency virus 1, MAGI, average of numeric determinations, read-out: Avg. EC50
# [13] = DL1 cells, cytotoxicity, average±SEM, read-out: IC50
Compound,Luminescence Raw1 (DL1 cells; [4]),Luminescence Raw2 (DL1 cells; [5]),"Luminescence Raw1 (DL1 cells; DL1 cells, 0.2 µM, replicate 1)","Luminescence Raw2 (DL1 cells; DL1 cells, 0.2 µM, replicate 2)","Luminescence Raw1 (DL1 cells; DL1 cells, 1 µM, replicate 1)","Luminescence Raw2 (DL1 cells; DL1 cells, 1 µM, replicate 2)","Luminescence Raw1 (DL1 cells; DL1 cells, 4 µM, replicate 1)","Luminescence Raw2 (DL1 cells; DL1 cells, 4 µM, replicate 2)","Luminescence Raw1 (DL1 cells; DL1 cells, 10 µM, replicate 1)","Luminescence Raw2 (DL1 cells; DL1 cells, 10 µM, replicate 2)","Luminescence Raw1 (DL1 cells; DL1 cells, 20 µM, replicate 1)","Luminescence Raw2 (DL1 cells; DL1 cells, 20 µM, replicate 2)",IC50 (DL1 cells; [6]) [nM],IC50 (DL1 cells; [7]) [nM],IC50 (DL1 cells; [8]) [nM],"viability at 0.04 µM [1, 9] [%]","viability at 0.04 µM [1, 10] [%]","viability at 0.2 µM [1, 9] [%]","viability at 0.2 µM [1, 10] [%]","viability at 1 µM [1, 9] [%]",other results
"C=C1CC[C@H]2[C@]3(C)C[C@@H](C=C(C)C)O[C@H]3CC[C@]2(C)[C@@H]1Cc1c(O)c(C)c(C)oc1=O [Compound 5, subglutinol A]",261750,334946,155744,204060,149254,158268,162234,166201,152139,173051,137356,139880,< 40,< 40,< 40,6.35,8.13,3.78,4.95,3.62,"IC50 (DL1 cells; DL-1 cell line, cell growth, read-out: IC50): < 40 nM; viability at 1 µM [1, 10]: 3.84%; viability at 4 µM [1, 9]: 3.94%; viability at 4 µM [1, 10]: 4.03%; viability at 10 µM [1, 9]: 3.69%; viability at 10 µM [1, 10]: 4.2%; viability at 20 µM [1, 9]: 3.33%; viability at 20 µM [1, 10]: 3.4%; MFE (%) ave (MCF-7 cells): 1.13%; MFE (control = 1) ave (MCF-7 cells): 1.30; MFE (%) (MCF-7 cells): 1.04% and 1.24% and 1.10%; effect on other viruses [2]: without affecting other viruses; EC50 [3, 11]: < 200 nM; EC50 [3, 12]: 38.9 nM; EC50 ([3]; Human immunodeficiency virus 1, MAGI, single determinations, read-out: Efficacy (EC50)): 36.3 nM; EC50 ([3]; single determinations, read-out: Efficacy (EC50)): 29.8 nM and 37.9 nM and 51.4 nM"
C=C1CC[C@H]2[C@]3(C)C[C@H](C=C(C)C)O[C@H]3CC[C@]2(C)[C@@H]1Cc1c(OC)oc(CO)c(C)c1=O [Compound 18],1968545,1896774,1171179,1320836,154319,146747,102038,104562,106725,129801,80404,106364,254,236,272,95.6,92.1,56.9,64.1,7.49,"IC50 (DL1 cells; [13]): 250 ± 20 nM; viability at 1 µM [1, 10]: 7.12%; viability at 4 µM [1, 9]: 4.95%; viability at 4 µM [1, 10]: 5.08%; viability at 10 µM [1, 9]: 5.18%; viability at 10 µM [1, 10]: 6.3%; viability at 20 µM [1, 9]: 3.9%; viability at 20 µM [1, 10]: 5.16%; MFE (%) ave (MCF-7 cells): 0.64%; MFE (control = 1) ave (MCF-7 cells): 0.74; MFE (%) (MCF-7 cells): 0.66% and 0.58% and 0.68%; effect on other viruses [2]: without affecting other viruses; EC50 [3, 11]: < 200 nM; EC50 [3, 12]: 644 nM"
C=C1CCC2C3(C)CC(C=C(C)C)OC3CCC2(C)C1Cc1c(OC)oc(C)c(C)c1=O (stereo not shown) [Compound 23],1660895,2275454,438070,571485,158989,204060,165479,159710,101660,111756,173772,169085,130,94,167,80.6,110,21.3,27.7,7.72,"IC50 (DL1 cells; [13]): 130 ± 40 nM; viability at 1 µM [1, 10]: 9.91%; viability at 4 µM [1, 9]: 8.03%; viability at 4 µM [1, 10]: 7.75%; viability at 10 µM [1, 9]: 4.94%; viability at 10 µM [1, 10]: 5.43%; viability at 20 µM [1, 9]: 8.44%; viability at 20 µM [1, 10]: 8.21%; MFE (%) ave (MCF-7 cells): 0.66%; MFE (control = 1) ave (MCF-7 cells): 0.76; MFE (%) (MCF-7 cells): 0.60% and 0.72% and 0.66%; effect on other viruses [2]: without affecting other viruses; EC50 [3, 11]: < 200 nM"

# — article PMC7156458, “Synthetic biology based construction of biological activity-related library of fungal decalin-containing diterpenoid pyrones” (Nature Communications, 2020)
